# Read-outs that look alike come from different tables or passages of the source.
# How the values were obtained:
# [1] = system: phosphorylation of Histone H3; assay: HeLa cell 1-hour phospho-histone assay; assay type: cell-based; settings: Homo sapiens, HeLa, 1 h, HeLa cells, 1 hour, average, read-out: pHH3 EC50_IP (Avg)
# Procedure: HeLa cell 1-hour phospho-histone assay
# The purpose of this assay is to test the inhibitory effect of Aurora compounds with respect to phosphorylation of Histone H3 in the cellular context. HeLa cells (9x10^4/well) are plated in black 96-well flat-bottom tissue culture plates and incubated for 40 hours prior to compound addition. Compounds are serially diluted in DMSO, followed by dilution into MEM containing […] HEPES; 10ul/well of diluted compounds are added to cells (0.5% DMSO final). Cells are incubated for 1 hour at 37 °C in 5% CO2. Cells are then fixed with 3.7% formaldehyde for 10 minutes, washed with wash buffer (1% goat serum and 0.1% Tween 20 in PBS), then permeabilized with 0.5% Triton X in PBS for 15 minutes. After washing with wash buffer, cells are incubated with primary antibody (Upstate #06-507 anti-phospho-histone (Ser 10) antibody (pHH3) for 1 hour at 10ug/ml. After 2 washes with wash buffer, cells are incubated with secondary antibody (Molecular Probes #A11034 goat anti-rabbit Alexa-488 for 1 hour at 1ug/ml + Hoechst 33342 nuclear dye at 1ug/ml (Molecular Probes). Cells are washed 2 times with wash buffer, and buffer replaced with PBS. Plates are scanned on the Cellomics Array Scan (6 fields, ~2000 cells/well) and % of cells that are pHH3 positive were calculated using the Cellomics algorithm.
# AuroraA-TPX2 = target: T1, AuroraA-TPX2 (Homo sapiens, UniProt O14965); assay: AuroraA-TPX2 Homogeneous Time Resolved Fluorescent (HTRF) kinase assay; assay type: biochemical; settings: average, read-out: AurA/TP X2_ IC50_IP (Avg)
# T1 construct: 20 µL of AuroraA-TPX2 KD GST; GST
# T1 sequence (O14965 133-383 limits assumed): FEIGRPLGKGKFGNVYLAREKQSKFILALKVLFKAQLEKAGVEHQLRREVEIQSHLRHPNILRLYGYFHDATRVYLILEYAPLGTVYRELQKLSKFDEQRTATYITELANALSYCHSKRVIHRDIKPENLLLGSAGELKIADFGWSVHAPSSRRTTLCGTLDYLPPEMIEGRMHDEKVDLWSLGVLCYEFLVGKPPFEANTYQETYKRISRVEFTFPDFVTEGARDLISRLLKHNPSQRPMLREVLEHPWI
# T1 sequence (Q9ULW0 1-43 partner limits assumed): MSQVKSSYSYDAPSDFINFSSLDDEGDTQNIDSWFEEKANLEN
# In short: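 HTRF read-out: europium anti-phosphoPLK antibody (0.02 nM) plus streptavidin-APC detect phosphorylated biotin-PLK after EDTA stop and overnight equilibration. Kinase step runs about 120 min with Aurora-A/TPX2, ATP and roughly 1 µM PLK peptide at pH 7.5 HEPES buffer with Mg2+ and DTT.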
# AuroraB = target: T2, AuroraB (Homo sapiens, UniProt Q96GD4); assay: AuroraB Homogeneous Time Resolved Fluorescent (HTRF) kinase assay; assay type: biochemical; settings: average, read-out: AurB_ _IC50_IP (Avg)
# T2 construct: 20 µL of AuroraB FL His; His
# T2 sequence (Q96GD4 whole entry): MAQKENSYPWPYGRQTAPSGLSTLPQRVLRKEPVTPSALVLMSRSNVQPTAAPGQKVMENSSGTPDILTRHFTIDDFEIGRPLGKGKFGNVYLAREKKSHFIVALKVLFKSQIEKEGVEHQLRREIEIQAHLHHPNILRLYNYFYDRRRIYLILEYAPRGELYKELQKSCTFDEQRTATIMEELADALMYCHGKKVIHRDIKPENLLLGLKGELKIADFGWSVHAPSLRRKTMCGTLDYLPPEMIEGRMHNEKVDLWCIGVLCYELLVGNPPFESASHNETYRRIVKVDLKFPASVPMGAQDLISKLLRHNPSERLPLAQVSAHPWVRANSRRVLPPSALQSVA
# In short: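 HTRF read-out: after EDTA stop and ~60 min with europium anti-phospho-H3 antibody and streptavidin-APC, 655/615 nm ratio reports phosphorylation. Reaction: 400 pM AuroraB FL His, 23 µM ATP (at Km(app)), 0.1 µM biotin-Histone H3 peptide, 50 mM HEPES pH 7.5, MgCl/MnCl, ~90 min.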
# [2] = given as numbers, unit inferred
"EC50 [1, 2]",IC50 (AuroraA-TPX2; [2]),IC50 (AuroraB; [2]),EC50 ([1]; given as class symbols),IC50 (AuroraA-TPX2; given as class symbols),IC50 (AuroraB; given as class symbols),Structure (SMILES)
0.228 µM,0.033 µM,0.0148 µM,–,–,–,"Nc1nccc(-c2cccnc2Oc2ccc(Nc3ncc(-c4ccccc4)c4ccccc34)cc2)n1 [compound 260, N-(4-((3-(2-amino-4-pyrimidinyl)-2-pyridinyl)oxy)phenyl)-4-phenyl-1-isoquinolinamine]"
–,–,–,0.5 to 2.5 µM,0.1 to 0.5 µM,0.1 to 0.5 µM,"c1ccc(-c2nnc(Nc3ccc(Oc4nccnc4-c4ccncc4)cc3)c3ccccc23)cc1 [compound 261, 4-phenyl-N-(4-((3-(4-pyridinyl)-2-pyrazinyl)oxy)phenyl)-1-phthalazinamine]"
0.334 µM,0.0348 µM,0.0158 µM,–,–,–,"Cc1csc(-c2cnc(Nc3ccc(Oc4ncccc4-c4ccnc(N)n4)cc3)c3ccccc23)c1 [compound 262, N-(4-((3-(2-amino-4-pyrimidinyl)-2-pyridinyl)oxy)phenyl)-4-(4-methyl-2-thienyl)-1-isoquinolinamine]"
–,–,–,0.5 to 2.5 µM,0.5 to 2.5 µM,0.5 to 2.5 µM,"Nc1nccc(-c2cccnc2Oc2ccc(Nc3nnc(-c4ccccc4)cc3O)cc2)n1 [compound 263, 3-((4-((3-(2-amino-4-pyrimidinyl)-2-pyridinyl)oxy)phenyl)amino)-6-phenyl-4-pyridazinol]"
–,–,–,≤ 0.1 µM,≤ 0.1 µM,≤ 0.1 µM,"Nc1nccc(-c2cccnc2Oc2ccc(Nc3nnc(C4CCCCC4)c4ccccc34)cn2)n1 [compound 274, N-(6-((3-(2-amino-4-pyrimidinyl)-2-pyridinyl)oxy)-3-pyridinyl)-4-cyclohexyl-1-phthalazinamine]"
0.282 µM,0.0299 µM,0.0074 µM,–,–,–,"Nc1nccc(-c2cccnc2Oc2ccc(Nc3nnc(N4CCCC(F)C4)c4ccccc34)cc2)n1 (stereo not drawn) [compound 278, N-(4-((3-(2-amino-4-pyrimidinyl)-2-pyridinyl)oxy)phenyl)-4-(3-fluoro-1-piperidinyl)-1-phthalazinamine]"
–,–,–,0.1 to 0.5 µM,0.1 to 0.5 µM,≤ 0.1 µM,"CN1CCN(CCCNc2cc(-c3cccnc3Oc3ccc(Nc4nnc(-c5ccccc5)c5ccccc45)cc3)ccn2)CC1 [compound 279, N-(3-(4-methyl-1-piperazinyl)propyl)-2-((4-((4-phenyl-1-phthalazinyl)amino)phenyl)oxy)-3,4'-bipyridin-2'-amine]"
–,–,–,0.1 to 0.5 µM,≤ 0.1 µM,≤ 0.1 µM,"Cc1cc(-c2ccccc2)nnc1Nc1ccc(Oc2ncccc2-c2ccnc(NCCCN3CCN(C)CC3)n2)nc1 [compound 280, 4-methyl-N-(6-((3-(2-((3-(4-methyl-1-piperazinyl)propyl)amino)-4-pyrimidinyl)-2-pyridinyl)oxy)-3-pyridinyl)-6-phenyl-3-pyridazinamine]"
0.17 µM,0.0204 µM,0.0061 µM,–,–,–,"O=C1Cc2c(-c3cccnc3Oc3ccc(Nc4nnc(-c5ccccc5)c5ccccc45)cc3)ccnc2N1 [compound 281, 4-(2-((4-((4-phenyl-1-phthalazinyl)amino)phenyl)oxy)-3-pyridinyl)-1,3-dihydro-2H-pyrrolo[2,3-b]pyridin-2-one]"
–,–,–,0.1 to 0.5 µM,≤ 0.1 µM,≤ 0.1 µM,"Cc1cc(-c2ccccc2)nnc1Nc1ccc(Oc2ncccc2-c2ccnc3c2CC(=O)N3)cc1 [compound 282, 4-(2-((4-((4-methyl-6-phenyl-3-pyridazinyl)amino)phenyl)oxy)-3-pyridinyl)-1,3-dihydro-2H-pyrrolo[2,3-b]pyridin-2-one]"
–,–,–,0.5 to 2.5 µM,0.1 to 0.5 µM,≤ 0.1 µM,"CN(C)Cc1cccc(-c2nnc(Nc3ccc(Oc4ncccc4-c4ccnc(N)n4)cc3)c3ccccc23)c1 [compound 299, N-(4-((3-(2-amino-4-pyrimidinyl)-2-pyridinyl)oxy)phenyl)-4-(3-((dimethylamino)methyl)phenyl)-1-phthalazinamine]"
–,–,–,0.1 to 0.5 µM,0.1 to 0.5 µM,0.1 to 0.5 µM,"Cc1n[nH]cc1-c1cccnc1Oc1ccc(Nc2nnc(-c3ccccc3)c3ccccc23)cc1 [compound 300, N-(4-((3-(3-methyl-1H-pyrazol-4-yl)-2-pyridinyl)oxy)phenyl)-4-phenyl-1-phthalazinamine]"
0.166 µM,0.0055 µM,0.0031 µM,–,–,–,"Cc1ccc(-c2nnc(Nc3ccc(Oc4ncccc4-c4c[nH]nc4N)cc3)c3ccccc23)cc1 [compound 301, N-(4-((3-(3-amino-1H-pyrazol-4-yl)-2-pyridinyl)oxy)phenyl)-4-(4-methylphenyl)-1-phthalazinamine]"
–,–,–,0.5 to 2.5 µM,≤ 0.1 µM,≤ 0.1 µM,"Cc1cc(-c2ccccc2)nnc1Nc1ccc(Oc2ncccc2-c2c[nH]nc2N)cc1 [compound 302, N-(4-((3-(3-amino-1H-pyrazol-4-yl)-2-pyridinyl)oxy)phenyl)-4-methyl-6-phenyl-3-pyridazinamine]"
0.729 µM,0.0032 µM,0.0166 µM,–,–,–,"Nc1n[nH]cc1-c1cccnc1Oc1ccc(Nc2nnc(Cc3ccccc3)c3ccccc23)cc1 [compound 303, N-(4-((3-(3-amino-1H-pyrazol-4-yl)-2-pyridinyl)oxy)phenyl)-4-(phenylmethyl)-1-phthalazinamine]"
0.788 µM,0.0164 µM,0.0687 µM,–,–,–,"Nc1n[nH]cc1-c1cccnc1Oc1ccc(Nc2nnc(-c3ccccc3)c3ccsc23)cc1 [compound 304, N-(4-((3-(3-amino-1H-pyrazol-4-yl)-2-pyridinyl)oxy)phenyl)-4-phenylthieno[2,3-d]pyridazin-7-amine]"
–,–,–,0.5 to 2.5 µM,≤ 0.1 µM,≤ 0.1 µM,"Nc1n[nH]cc1-c1cccnc1Oc1ccc(Nc2nnc(-c3cccc(CO)c3)c3ccccc23)cc1 [compound 305, (3-(4-((4-((3-(3-amino-1H-pyrazol-4-yl)-2-pyridinyl)oxy)phenyl)amino)-1-phthalazinyl)phenyl)methanol]"
–,–,–,0.1 to 0.5 µM,≤ 0.1 µM,≤ 0.1 µM,"Nc1n[nH]cc1-c1cccnc1Oc1ccc(Nc2nnc(-c3ccc(Cl)cc3)c3ccccc23)cc1 [compound 306, N-(4-((3-(3-amino-1H-pyrazol-4-yl)-2-pyridinyl)oxy)phenyl)-4-(4-chlorophenyl)-1-phthalazinamine]"
–,–,–,0.1 to 0.5 µM,≤ 0.1 µM,≤ 0.1 µM,"Cc1csc(-c2nnc(Nc3ccc(Oc4ncccc4-c4c[nH]nc4N)cc3)c3ccccc23)c1 [compound 307, N-(4-((3-(3-amino-1H-pyrazol-4-yl)-2-pyridinyl)oxy)phenyl)-4-(4-methyl-2-thienyl)-1-phthalazinamine]"
–,–,–,0.5 to 2.5 µM,≤ 0.1 µM,≤ 0.1 µM,"Nc1n[nH]cc1-c1cccnc1Oc1ccc(Nc2nnc(-c3ccccc3)c3c2CCCC3)cc1 [compound 308, N-(4-((3-(3-amino-1H-pyrazol-4-yl)-2-pyridinyl)oxy)phenyl)-4-phenyl-5,6,7,8-tetrahydro-1-phthalazinamine]"
–,–,–,0.5 to 2.5 µM,≤ 0.1 µM,≤ 0.1 µM,"Cc1csc(-c2nnc(Nc3ccc(Oc4ncccc4-c4c[nH]nc4N)cc3)c3ccccc23)n1 [compound 309, N-(4-((3-(3-amino-1H-pyrazol-4-yl)-2-pyridinyl)oxy)phenyl)-4-(4-methyl-1,3-thiazol-2-yl)-1-phthalazinamine]"
–,–,–,≤ 0.1 µM,≤ 0.1 µM,≤ 0.1 µM,"Cc1csc(-c2nnc(Nc3ccc(Oc4ncccc4-c4ccnc(N)n4)cc3)c3ccccc23)n1 [compound 330, N-(4-((3-(2-amino-4-pyrimidinyl)-2-pyridinyi)oxy)phenyl)-4-(4-methyl-1,3-thiazol-2-yl)-1-phthalazinamine]"

# — patent publication EP1984353B1, “AURORA KINASE MODULATORS AND METHOD OF USE” (Amgen, Inc, priority 2006, dated 2007)
